Measured values as given in PMC8139662 (Journal of Virology, 2021).
Several values for one entry are separate records, joined by “and”; a condition that tells them apart may be missing. Equal entries are not always repeated. Where two headings read alike, the source gives them in different places.

Assays:
[1] = test system: SARS-CoV-2 USA-WA1/2020; assay: Time-of-drug-addition assay in A549+ACE2 cells; type: cell-based; details: A549+ACE2, USA-WA1/2020
[2] = test system: SARS-CoV-2 USA/NYU-VC-003/2020; type: cell-based
[3] = test system: SARS-CoV-2 USA-WA1/2020; type: cell-based; details: for protection from virus-induced CPE: at 1 μM (PF-00835231: 1 μM and above); for protection from ring syncytium formation (CPE): at 0.33 μM and above; for protection from ring syncytium formation (CPE) / overall number of infected foci: microscopy; for overall number of infected foci: A549+ACE2, drug treatment
[4] = test system: SARS-CoV-2; details: Vero E6 cells; cited from earlier work
[5] = test system: A549^+ACE2 cells
[6] = test system: SARS-CoV-2 USA-WA1/2020; type: cell-based; details: for SARS-CoV-2 infectious titers in apical washes: 10 μM basolateral, washes every 12 h up to 72 h; for number of infected (N-expressing) cells: 10 μM, 72-h endpoint
[7] = test system: SARS-CoV-2; details: PF-00835231 with remdesivir, in vitro; cited from earlier work
[8] = test system: panel of diverse coronavirus 3CL^pro; details: alpha-, beta- and gammacoronavirus 3CLpro panel; cited from earlier work
[9] = test system: polarized human airway epithelial cultures (HAEC)
[10] = test system: BCi-NS1.1 cells; details: 48 h, dose range up to 10 μM
[11] = in vitro; details: human
[12] = test system: COVID-19 patients; details: patients with more advanced infection, i.v.; cited from earlier work
[13] = PF-00835231 versus GC-376 set (Table 2)

Structure (SMILES)	minimum treatment dose that led to undetectable infection levels [1] [µM]	EC90 [2]	EC50 [2, 13] [nM]	protection from virus-induced CPE [3]	EC50 [4] [nM]	CC50 [5] [µM]	SARS-CoV-2 infectious titers in apical washes [6]	number of infected (N-expressing) cells [6]	effect on morphology of HAEC (histology) [9]	ATP levels (cell viability) [10]	protection from ring syncytium formation (CPE) ([3]; A549+ACE2)	overall number of infected foci [3]	also measured
CC(C)C[C@H](NC(=O)OCc1ccccc1)C(=O)N[C@@H](CC1CCNC1=O)C(O)S(=O)(=O)[O-].[Na+] (stereo partly drawn) [GC-376, reference compound]	10	2730 nM	529	unable to protect cells from virus-induced CPE	900	> 10	–	–	–	–	–	–	EC90 [3]: 4.55 µM and 5.25 µM; number and size of viral foci ([3]; 1 μM, A549+ACE2): decreased the number and size of viral foci
COc1cccc2[nH]c(C(=O)N[C@@H](CC(C)C)C(=O)N[C@@H](C[C@@H]3CCNC3=O)C(=O)CO)cc12 [PF-00835231]	3	591 nM and 1170 nM	326	fully protected	270	> 10	viral titers below the limit of detection at most time points	the number of infected cells was significantly reduced	Neither drug caused measurable adverse effects on the morphology of the cultures	did not detect a decrease in ATP	fully protected	decreased the overall number of infected foci	change in antiviral efficacy when blocking MDR1 ([6]; […], HAEC, 0.025 or 0.5 μM PF-00835231): no changes in antiviral efficacy when blocking MDR1 activity; EC50 ([2]; PF-00835231 versus remdesivir set (Table 1), n = 3): 184 nM; combination effect with remdesivir in inhibiting SARS-CoV-2 [7]: significant synergistic effects; inhibition of 3CLpro [8]: potent inhibition; change in antiviral efficacy when blocking MDR1 [3]: no changes in antiviral efficacy when blocking MDR1 activity; antiviral activity against SARS-CoV-2 [4]: high micromolar levels; effect of inhibiting MDR1 function on antiviral efficacy [4]: significantly increased antiviral efficacy
CCC(CC)COC(=O)[C@H](C)N[P@](=O)(OC[C@H]1O[C@@](C#N)(c2ccc3c(N)ncnn23)[C@H](O)[C@@H]1O)Oc1ccccc1 [remdesivir, reference compound]	–	–	–	–	–	–	viral titers below the limit of detection at most time points	the number of infected cells was significantly reduced	Neither drug caused measurable adverse effects on the morphology of the cultures	caused a reduction in ATP levels compared to carrier control, albeit not statistically significantly	fully protected	decreased the overall number of infected foci	CC50 [11]: > 10 µM; effect on transepithelial resistance (TEER) over time [9]: negatively impacted TEER over time, albeit not statistically significantly compared to untreated cultures; patients with benefit [12]: 68%
